Starred links: 1 amine or outer side, 2 acyl side, 3 side chain; linkers in the order of their positions; H or OH if unused. Positions of bridges follow the written chain, without caps; N, C: chain ends. Non-standard residues stand in square brackets, D forms with d. Residues, ends and D or L forms follow the SMILES beside them. Phe(3-OCH2COOH) = N[C@@H](Cc1cccc(OCC(=O)O)c1)C(=O)O; Phe(4-COOH) = N[C@@H](Cc1ccc(C(=O)O)cc1)C(=O)O; Gly(N(CH2)3COOH) = O=C(O)CCCNCC(=O)O; X1 = CCCCCCC[C@H](N[*:1])C(=O)[*:2]; NMeF = CN[C@@H](Cc1ccccc1)C(=O)O; NMeA = CN[C@@H](C)C(=O)O
Columns and labels:
Myostatin [1] = target: T1, Myostatin (Homo sapiens, UniProt O14793); experiment: Reporter gene assay for myostatin signaling in HepG2 cell line, Evaluation Procedure (1), myostatin inhibition; type: cell-based; details: Method A: Myostatin 10 ng/mL; read-out: IC50 (Luciferase) Myostatin HepG2
T1 construct: active myostatin (also called mature myostatin) is a homodimer consisting of two C-terminal growth factor domains; purchased R&D systems 788-G8/CF
T1 sequence (O14793 267-375): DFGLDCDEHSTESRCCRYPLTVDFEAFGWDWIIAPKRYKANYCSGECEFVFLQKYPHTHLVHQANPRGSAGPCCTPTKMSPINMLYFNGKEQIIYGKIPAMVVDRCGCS
Procedure, shortened: (§1)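 IC50 derived from One-Glo luciferase luminescence after 20–24 h at 37 °C. Peptides titrated 4-fold at 0.006–100 nmol/L against myostatin or 0.12–2000 nmol/L against GDF-11 in HepG2 cells carrying a transfected CAGA12-luciferase reporter, kept in 0.1% BSA EMEM.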

Myostatin [2] = experiment: as above; type: cell-based; details: Method A; GDF-11 IC50 versus Myostatin IC50
Procedure, shortened: as §1

GDF-11 = target: T2, GDF-11 (Homo sapiens, UniProt O95390); experiment: Reporter gene assay for myostatin signaling in HepG2 cell line, Evaluation Procedure (1), GDF-11 inhibition; type: cell-based; details: Method A: GDF-11 10 ng/mL; read-out: IC50 (Luciferase) GDF-11 HepG2
T2 construct: purchased R&D systems 1958-GD-G8/CF
T2 sequence (O95390 299-407): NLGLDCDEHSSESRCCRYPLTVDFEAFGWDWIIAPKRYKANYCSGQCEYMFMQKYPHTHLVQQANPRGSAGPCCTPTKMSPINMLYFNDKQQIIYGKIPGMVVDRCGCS
Procedure, shortened: as §1

DBA/2 mdx model mice = experiment: Subcutaneously administered peptide, improvement of muscle strength in DBA/2 mdx mice; type: in vivo, DBA/2N-mdx mice; details: Fig. 5
Protocol: In this Example, the effect of the peptide Myostatin_99_v145 (SEQ ID NO: 30) was evaluated on improvement of muscle strength in DMD model mice.
To twenty-week-old female DBA/2N-mdx mice (Central Institute for Experimental Medicine and Life Science), Myostatin_99_v145 or solvent control (PBS) was subcutaneously administered once a week for 4 weeks as shown in Table 12. As a Comparative Example, a single intravenous dose of anti-latent myostatin antibody (GYM329-BS) was administered.
Using a smart-type grip strength meter for rats and mice (MK-380V; Muromachi Kikai Co., Ltd.), forelimb and hindlimb grip strength measurements were performed on the day of completion of the acclimation period (grouping day), and on Days 7, 14, 21, and 26. The measurements were conducted with individual identification numbers blinded so that the examiner was unaware of the test conditions of the mice. The grip strength was measured seven times consecutively, and the average of five points, excluding the two points: the highest and lowest values, was used as individual data.

IC50 (Myostatin [1]): 1.6 nM
IC50 (GDF-11): 414 nM
SMILES: CCCCCCC[C@@H]1NC(=O)[C@H](Cc2ccccc2)N(C)C(=O)[C@H](CCCNC(=N)N)NC(=O)[C@H](Cc2ccc(C(=O)O)cc2)NC(=O)[C@H](Cc2cccc(OCC(=O)O)c2)NC(=O)[C@H](C)N(C)C(=O)[C@H]([C@@H](C)CC)NC(=O)[C@H](Cc2ccccc2)N(C)C(=O)[C@H](Cc2ccc(O)cc2)NC(=O)[C@H](Cc2c[nH]c3ccccc23)NC(=O)[C@H](C)NC(=O)CN(CCCC(=O)O)C(=O)CSC[C@H](C(=O)O)NC(=O)[C@H](Cc2ccccc2)N(C)C(=O)[C@H](C)N(C)C1=O [Myostatin_99_v145] ({CH2CO}-[Gly(N(CH2)3COOH)]AWY[NMeF]I[NMeA][Phe(3-OCH2COOH)][Phe(4-COOH)]R[NMeF][X1][NMeA][NMeF][dC]-OH; thioether N-15)
Selectivity (Myostatin [2]): 259
time-course change in grip strength (DBA/2 mdx model mice; 1 and 3 mg/kg subcutaneous once a week for 4 weeks, vs. PBS Vehicle group): continuous increase in grip strength was observed in a dose-dependent manner
maximum effect (grip strength) compared with GYM329-BS (DBA/2 mdx model mice; GYM329-BS 10 mg/kg single intravenous dose): higher than that of GYM329-BS

— patent publication EP4786487A1, “PEPTIDE” (Peptidream Inc, priority 2023, dated 2025)
